Source: PMC10343781, “Effect of Linker Elongation on the VGSC Affinity and Anticonvulsant Activity among 4-Alkyl-5-aryl-1,2,4-triazole-3-thione Derivatives” (Molecules, 2023)
Read-outs that look alike come from different tables or passages of the source.

Experiments:
[1] = target: Na+ channel (site 2), batrachotoxin-binding sites of VGSCs; conditions: cited from earlier work
[2] = target: Na+ channel (site 2), batrachotoxin-binding sites of VGSCs; conditions: [3H]batrachotoxin displacement, rat cerebral cortex membranes, 8 concentrations 0.1-300 µM; read-out: Na+ Channel (Site 2) Affinity IC50 ± SEM
[3] = tested on: maximal electroshock-induced tonic-clonic seizures in mice; assay: Maximal electroshock-induced seizure (MES) test; type: in vivo; conditions: Mus musculus, ip, read-out: ED50 ± SEM, anticonvulsant activity (MES test)
Method: As the sodium channel ligands are recognized as antiepileptic agents and the affinity of 3 and 4 against VGSCs was still in the beneficial range, the investigated 1,2,4-triazole derivatives were examined for their antiepileptic potential using in the vivo model of tonic–clonic seizures in mice. The protective effect of compounds 3 and 4 against maximal electroshock-induced seizures (MES) was evaluated in a wide range of doses (producing 0% to 100% protection) that enabled us to calculate corresponding ED50 values.
Anticonvulsant activity of the investigated compounds was determined according to the same procedure as described in [11, 15, 18]. Adult albino mice weighing 20–25 g were used in the experiment. The animals were randomly divided into groups of 8 mice and kept in colony cages with free access to water and food. Test compounds were administered intraperitoneally, suspended in a 1% solution of Tween 80 in distilled water in a volume of 5 mL/kg. Electroconvulsions were produced with alternating current (0.2 s stimulus duration; 500 V, 50 Hz, 25 mA constant current) delivered through ear clip electrodes by a type 221 rodent shock generator (Hugo Sachs Elektronik, Freiburg, Germany). Absence of tonic extension of the hind limb was assumed as the criterion of anticonvulsant activity. ED50 values were calculated using Litchfield and Wilcoxon’s log-probit method.

[4] = tested on: motor coordination of mice; assay: Rotarod test (acute neurotoxicity); conditions: i.p.
Method: Additionally, their possible acute neurotoxic effects were evaluated in the rotarod test.
Acute neurotoxicity of the compounds obtained after i.p. administration was tested in mice using the rotarod test according to the methodology described earlier [37].

[5] = tested on: maximal electroshock-induced tonic-clonic seizures in mice; set-up: method as in PMID 30594731; conditions: cited from earlier work

Structure (SMILES)	IC50 [2] [µM]	ED50 ([3]; pretreatment time 15 min) [mg/kg]	ED50 ([3]; pretreatment time 30 min) [mg/kg]	ED50 ([3]; pretreatment time 60 min) [mg/kg]	ED50 ([3]; pretreatment time 120 min) [mg/kg]	melting point [°C]	PI (TD50/ED50) ([4]; pretreatment time 15 min)	PI (TD50/ED50) ([4]; pretreatment time 30 min)	PI (TD50/ED50) ([4]; pretreatment time 60 min)	PI (TD50/ED50) ([4]; pretreatment time 120 min)	also measured
CCCCn1c(Cc2cccc(Cl)c2)n[nH]c1=S [Compound 1]											IC50 ([1]; Figure 1, methylene-linker 3-chlorophenyl analogs, read-out: IC50 (VGSC affinity)): 15.8 µM
CCCCCCn1c(Cc2cccc(Cl)c2)n[nH]c1=S [Compound 2, 5-(3-chlorobenzyl)-4-hexyl-1,2,4-triazole-3-thione]											IC50 ([1]; read-out: IC50 (blocked the VGSCs)): 6.17 µM
CCCCn1c(CCc2cccc(Cl)c2)n[nH]c1=S [Compound 3, 4-Butyl-5-[2-(3-chlorophenyl)ethyl]-2,4-dihydro-3H-1,2,4-triazole-3-thione]	11.9 ± 0.4	139 ± 31.4	96.6 ± 14.8	148 ± 17.1	195 ± 18.9	102 to 104	2.4	3.4	2.3	1.7	
CCCCCCn1c(CCc2cccc(Cl)c2)n[nH]c1=S [Compound 4, 5-[2-(3-Chlorophenyl)ethyl]-4-hexyl-2,4-dihydro-3H-1,2,4-triazole-3-thione]	18.9 ± 0.3	115 ± 7.6	129 ± 21.1	215 ± 21.1	255 ± 22.5	84 to 86	6.2	5.3	3.2	1.9	median toxic doses (TD50) in the rotarod test ([4]; pretreatment time not stated, highest value of the series): ≤ 710.5 mg/kg
CCCC(CCC)C(=O)O [Valproate]											ED50 ± SEM, anticonvulsant activity (MES test) ([5]; pretreatment time 15 min): 189.0 ± 17.3 mg/kg; ED50 ± SEM, anticonvulsant activity (MES test) ([5]; pretreatment time 30 min): 216.9 ± 9.4 mg/kg; ED50 ± SEM, anticonvulsant activity (MES test) ([5]; pretreatment time 60 min): 218.4 ± 18.9 mg/kg; ED50 ± SEM, anticonvulsant activity (MES test) ([5]; pretreatment time 120 min): 246.6 ± 21.4 mg/kg
COc1ccc(C(=O)O[C@H]2CC[C@@]3(C)[C@@H]4CC[C@H]5[C@]6(O)C[C@H](O)[C@@]7(O)[C@@H](CN8C[C@@H](C)CC[C@H]8[C@@]7(C)O)[C@]6(O)C[C@@]53O[C@]24O)cc1OC [Veratridine, reference compound]	17.8 ± 0.9										
